The results in this text go back to patent US9387221B2, “SDF-1 binding nucleic acids and the use thereof in cancer treatment” (NOXXON Pharma AG, priority 2010, dated 2016).

[L-RNA-N] = L-ribonucleotide (mirror-image RNA, Spiegelmer), made from L-configured RNA phosphoramidites (N: the base); {PEG40k} = 40 kDa poly(ethylene glycol)

One data set has as its target SDF-1 (Homo sapiens, UniProt P48061). The data set is described as follows: Inhibition of SDF-1-induced chemotaxis, Jurkat cells. Type of data set: cell-based. As to conditions: for IC50: Spiegelmer, Jurkat cells migrating towards 0.3 nM human SDF-1, 3 h, 37° C., read-out: IC50, cell culture in vitro chemotaxis assay; for influence of the PEG-moiety on Spiegelmers potency to inhibit SDF-1 induced chemotaxis: Spiegelmer coupled to 40 kDa PEG at the 5′-end. The procedure:
The human T cell leukemia cell line Jurkat, the human leukemic monocyte lymphoma cell line U937, the human pre-B cell leukemia cell line BV-173 and human pre-B ALL cell line Nalm-6 express CXCR4. […] All cells used were obtained from the DSMZ (Braunschweig). All cell lines were cultivated at 37° C. and 5% CO2 in RPMI 1640 medium with Glutamax (Invitrogen, Karlsruhe, Germany) which contains 10% fetal bovine serum, 100 units/ml penicillin and 100 μg/ml streptomycin (Invitrogen, Karlsruhe, Germany). One day before the experiment, cells were seeded in a new T175 flask with a density of 0.3×10^6/ml (Jurkat, U937, BV-173) or 0.75×10^6/ml (Nalm-6), respectively.
For the experiment, cells were centrifuged (5 min at 300 g), resuspended, counted and washed once with 15 ml HBH (Hanks balanced salt solution containing 1 mg/ml bovine serum albumin and 20 mM HEPES; Invitrogen, Karlsruhe, Germany). Then the cells were resuspended at 1.33×10^6/ml (Jurkat, U937, BV-173) or 2.67×10^6/ml (Nalm-6), respectively. Cells were then allowed to migrate through the porous membranes of the filter plates for three hours towards a solution containing SDF-1 and various amounts of Spiegelmer. The stimulation solutions (SDF-1+various concentrations of Spiegelmer) were made up as 10× solutions in a 0.2 ml low profile 96-tube plate. 212 μl HBH were pipetted into the lower compartments of the transport plate and 23.5 μl of the stimulation solutions were added. All conditions were made up as triplicates. After 20 to 30 min the filter plate was inserted into the plate containing the stimulation solutions and 75 μl of a cell suspension with 1.33×10^6/ml or 2.67×10^6/ml, respectively, were added to the wells of the filter plate (1×10^5 or 2×10^5 cells/well). The cells were then allowed to migrate for 3 h at 37° C. For calibration, 0, 10 and 30 μl of the cell suspension was added to 235, 225 and 205 μl HBH, respectively, in wells of a separate 96-well plate. After 3 hours incubation, the insert plate was removed and 30 μl resazurin working solution (440 μM in PBS) were added to the lower wells and to the wells of the calibration plate. The plates were then incubated at 37° C. for 2.5 h. After incubation, 100 μl of each well were transferred to a black 96 well plate.
For evaluation, fluorescence values were corrected for background fluorescence (no cells in well). Then the difference between experimental conditions with and without SDF-1 was calculated. The value for the sample without Spiegelmer (SDF-1 only) was set 100% and the values for the samples with Spiegelmer were calculated as percent of this. For a dose-response curve the percent-values were plotted against Spiegelmer concentration and the IC50-value (concentration of Spiegelmer at which 50% of the activity without Spiegelmer is present) was determined graphically from the resulting curve.

In data set [1] the test system is SDF-1 induced sprouting, rings from rat aorta. The data set is described as follows: Aortic ring sprouting assay. Type of data set: cell-based. As to conditions: 10 nM SDF-1 + 1 μM Spiegelmer, 6 days. The procedure:
After 6 to 7 days, sprouting (i.e. outgrowth of endothelial cells) was analysed by taking pictures and determining a sprouting index.
Aortae from male rats were obtained from Bagheri Life sciences (Berlin, Germany). The aortae were prepared freshly and transported on ice in MCDB 131-Medium (Invitrogen, Karlsruhe, Germany) containing 50 units/ml penicillin, 50 μg/ml streptomycin (both Invitrogen, Karlsruhe, Germany) and 2.5 μg/ml fungizone (Cambrex, USA).
For an experiment a single aorta was transferred to a cell culture dish together with the medium and residual connective tissue was removed. Then the aorta was cut with a scalpel into rings of about 1 to 2 mm length. The rings were washed intensively (at least five times) in Medium199 (Invitrogen, Karlsruhe, Germany) and then placed in wells of a 24 well plate, containing 450 μl of collagen solution per well. […]
Sprouting was documented by taking pictures with a digital camera. […] Pictures were analysed with the Scion Image image processing software. […] A plot histogram along this line was generated by the software, histograms were printed and peaks (representing sprouts crossing the line) were counted. […] 4 to 5 rings per condition were evaluated. […]

For another data set, the target named is human SDF-1α (Homo sapiens, UniProt P48061). The data set is described as follows: Surface plasmon resonance measurement (Biacore 2000). As to conditions: Spiegelmer (L-RNA), 37° C. It counts as binding. The procedure:
The Biacore 2000 instrument (Biacore AB, Uppsala, Sweden) was used to analyze binding of Spiegelmers to human SDF-1α. When coupling of human SDF-1α was to be achieved via amine groups, human SDF-1α was dialyzed against water for 1-2 h (Millipore VSWP mixed cellulose esters; pore size, […]) to remove interfering amines. CM4 sensor chips (Biacore AB, Uppsala, Sweden) were activated before protein coupling by a 35-μl injection of a 1:1 dilution of 0.4 M NHS and 0.1 M EDC at a flow of 5 μl/min. Human MCP-1 or human SDF-1α was then injected in concentrations of 0.1-1.5 μg/ml at a flow of 2 μl/min until the instrument's response was in the range of 1000-2000 RU (relative units). Unreacted NHS esters were deactivated by injection of 35 μl ethanolamine hydrochloride solution (pH 8.5) at a flow of 5 μl/min. The sensor chip was primed twice with binding buffer and equilibrated at 10 μl/min for 1-2 hours until the baseline appeared stable. For all proteins, kinetic parameters and dissociation constants were evaluated by a series of Spiegelmer injections at concentrations of 1000, 500, 250, 125, 62.5, 31.25, and 0 nM in selection buffer (Tris-HCl, 20 mM; NaCl, 137 mM; KCl, 5 mM; CaCl2, 1 mM; MgCl2, 1 mM; Tween20, 0.1% [w/v]; pH 7.4). In all experiments, the analysis was performed at 37° C. using the Kinject command defining an association time of 180 and a dissociation time of 360 seconds at a flow of 10 μl/min. Data analysis and calculation of dissociation constants (KD) was done with the BIAevaluation 3.0 software (BIACORE AB, Uppsala, Sweden) using the Langmuir 1:1 stochiometric fitting algorithm.

Data set [2] deals with biotinylated human D-SDF-1. The data set is described as follows: Competitive pull-down binding assay. As to conditions: for binding affinity in competitive pull-down binding assay vs. 192-A10-001: aptamer level, reference 192-A10-001.
The subject of data set [3] is biotinylated human D-SDF-1. The data set is described as follows: Direct pull-down binding assay. As to conditions: aptamer (D-RNA), 37° C.; read-out: equilibrium binding constant KD, pull-down binding assay. The procedure: The affinity of aptamers to biotinlayted human D-SDF-1 was measured in a pull-down binding assay format at 37° C. Aptamers were 5′-phosphate labeled by T4 polynucleotide kinase (Invitrogen, Karlsruhe, Germany) using [γ-^32P]-labeled ATP (Hartmann Analytic, Braunschweig, Germany). The specific radioactivity of labeled aptamers was 200,000-800,000 cpm/pmol. Aptamers were incubated after de- and renaturation at 10, 20, 30 or 40 pM concentration at 37° C. in selection buffer (20 mM Tris-HCl pH 7.4; 137 mM NaCl; 5 mM KCl; 1 mM MgCl2; 1 mM CaCl2; 0.1% [w/vol] Tween-20) together with varying amounts of biotinlayted human D-SDF-1 for 4-12 hours in order to reach equilibrium at low concentrations. Selection buffer was supplemented with 10 μg/ml human serum albumin (Sigma-Aldrich, Steinheim, Germany), and 10 μg/ml yeast RNA (Ambion, Austin, USA) in order to prevent adsorption of binding partners with surfaces of used plasticware or the immobilization matrix. The concentration range of biotinlayted human D-SDF-1 was set from 8 pM to 100 nM; total reaction volume was 1 ml. Peptide and peptide-aptamer complexes were immobilized on 1.5 μl Streptavidin Ultralink Plus particles (Pierce Biotechnology, Rockford, USA) which had been preequilibrated with selection buffer and resuspended in a total volume of 6 μl. Particles were kept in suspension for 30 min at the respective temperature in a thermomixer. Immobilized radioactivity was quantitated in a scintillation counter after detaching the supernatant and appropriate washing. The percentage of binding was plotted against the concentration of biotinlayted human D-SDF-1 and dissociation constants were obtained by using software algorithms (GRAFIT; Erithacus Software; Surrey U.K.) assuming a 1:1 stoichiometry.

Chain of SDF-1 (P48061 22-89): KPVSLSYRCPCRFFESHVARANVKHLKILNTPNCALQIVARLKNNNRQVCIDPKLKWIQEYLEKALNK
Chain of human SDF-1α (P48061 22-89): as above

On to “5′-40 kDa-PEG-UAAGGAAACUCGGUCUGAUGCGGUAGCGCUGUGCAGAGCU (all [L-RNA-N], 5' {PEG40k}, backbone not given here) [Control Spiegelmer, reference compound]”, for which the “inhibition of SDF-1 induced chemotaxis” value with SDF-1 (Jurkat cells, Control Spiegelmer up to 1 μM) was “no inhibitory effect”. In data set [1], the “blockage of SDF-1 induced sprouting (sprouting index)” value was “No blockage”.

With “AGCGUGGCGAGGUUAGGGCUAGAAGUCGGUCGACACGCU (Made as D-RNA aptamer and L-RNA Spiegelmer, tested form not given here, further chemistry not given here) [191-D5-001]”, the Kd (in general, the constant that tells how readily two partners part at equilibrium) with human SDF-1α is 0.8 nM. For the same substance, the “binding affinity in competitive pull-down binding assay vs. 192-A10-001” value in data set [2] is on record as “weaker binding affinities”.

On to “AGCGUGGUGUGAUCUAGAUGUAUUGGCUGAUCCUAGUCAGGUACGCU (chemistry not fully specified) [193-G2-001]”, for which the Kd in data set [3] was determined as 0.3 nM. Also, the IC50 (usually the concentration that gives 50% inhibition) with SDF-1 is 0.08 nM. For the same substance, the “binding affinity in competitive pull-down binding assay vs. 192-A10-001” value in data set [2] is “superior binding”.

For “CGGGAGGUUAGGGCUAGAAGUCGGUCCCG (chemistry not fully specified) [191-D5-007]”, the Kd in the data set with human SDF-1α is 0.8 nM. Further, the Kd in data set [3] came out at 2.2 nM. Moreover, in the data set with SDF-1, the “influence of the PEG-moiety on Spiegelmers potency to inhibit SDF-1 induced chemotaxis” value (from here on “influence … to inhibit SDF-1 induced chemotaxis”) was “no influence” and the IC50 was determined as 0.1 nM. In addition, in data set [2] (reference 191-D5-001), the “binding affinity in competitive pull-down binding assay vs. 191-D5-001” value was “somewhat better”.

Consider “GAGAUAGGGGUUAGGGCUUAAAGUCGGCUGAUUCUC (aptamer; Made as D-RNA aptamer and L-RNA Spiegelmer, tested form not given here, further chemistry not given here) [190-A3-004]”, for which the Kd with human SDF-1α amounted to 4.7 nM; in data set [3] it was 4.6 nM. The IC50 with SDF-1 was found to be 0.1 nM. For the same substance, in data set [2] (compared with 190-A3-001), the “binding affinity of derivatives of 190-A3-001” value is listed as “does not have an influence on the binding affinity”.

“GCCGGGGUUAGGGCUAGAAGUCGGCCGGC (chemistry not fully specified) [197-B2-006]”: the “influence … to inhibit SDF-1 induced chemotaxis” value with SDF-1 is “no influence”. Besides, the “binding affinity of truncated derivatives of 197-B2” value in data set [2] (vs. 197-B2 and 191-D5-007) is on record as “fully persisted”.

Take “GCGUGAAAGCAACAUGUCAAUGAAAGGUAGCCGCGC (chemistry not fully specified) [192-A10-008]”: in the data set with SDF-1, the “influence … to inhibit SDF-1 induced chemotaxis” value is on record as “no influence”. In addition, the “binding affinity of derivatives of 192-A10-001 in competitive pull-down binding assay” value in data set [2] (vs. 192-A10-001 and 192-A10-008) is given as “same binding affinity as shown for 192-A10-002”.

Consider “GCGUGGUGUGAUCUAGAUGUAUUGGCUGAUCCUAGUCAGGUACGC (chemistry not fully specified) [193-G2-012]”, for which the Kd in data set [3] was 0.3 nM.

As for “GCUGUGAAAGCAACAUGUCAAUGAAAGGUAGCCGCAGC (aptamer; Made as D-RNA aptamer and L-RNA Spiegelmer, tested form not given here, further chemistry not given here) [192-A10-001]”, in data set [3], the Kd was 1.5 nM. In addition, in the data set with SDF-1, the IC50 came to 0.12 nM.

For the substance “GUGCUGCGGGGGUUAGGGCUAGAAGUCGGCCUGCAGCAC (aptamer; chemistry not fully specified) [197-B2]”, binding with human SDF-1α was put at a Kd of 0.9 nM. In data set [2], the “binding affinity in competitive pull-down binding assay vs. 192-A10-001” value is recorded as “weaker binding affinities”. In data set [2] (reference 191-D5-007), the “binding affinity in competitive pull-down binding assay vs. 191-D5-007” value was “same binding affinity to SDF-1 as 191-D5-007”.
